# In paper PMC11013419, “Understanding Antidiabetic Potential of Oligosaccharides from Red Alga Dulse Devaleraea inkyuleei Xylan by Investigating α-Amylase and α-Glucosidase Inhibition” (Molecules, 2024):
# Columns and labels:
# MGAM [1] = biological target: T1, MGAM (Homo sapiens, UniProt O43451); assay: Kinetics of MGAM inhibition (Michaelis–Menten, Lineweaver–Burk); format: biochemical; conditions: for Inhibition Type (MGAM): Lineweaver–Burk plot; for Vmax^app, inhibitor concentration A / Vmax^app, inhibitor concentration B / Vmax^app, inhibitor concentration C: MGAM, without inhibitor 0.089; for Vmax^app, inhibitor concentration A: A: X2 1.49, X3 1.63, DX3 1.33, DX4 1.28 mg/mL; for Vmax^app, inhibitor concentration B: B: X2 2.79, X3 4.08, DX3 3.32, DX4 3.19 mg/mL; for Vmax^app, inhibitor concentration C: C: X2 3.73, X3 10.19, DX3 8.30, DX4 7.98 mg/mL; for Ki: competitive inhibition constant
# T1 construct: made in house
# T1 sequence (O43451 whole entry): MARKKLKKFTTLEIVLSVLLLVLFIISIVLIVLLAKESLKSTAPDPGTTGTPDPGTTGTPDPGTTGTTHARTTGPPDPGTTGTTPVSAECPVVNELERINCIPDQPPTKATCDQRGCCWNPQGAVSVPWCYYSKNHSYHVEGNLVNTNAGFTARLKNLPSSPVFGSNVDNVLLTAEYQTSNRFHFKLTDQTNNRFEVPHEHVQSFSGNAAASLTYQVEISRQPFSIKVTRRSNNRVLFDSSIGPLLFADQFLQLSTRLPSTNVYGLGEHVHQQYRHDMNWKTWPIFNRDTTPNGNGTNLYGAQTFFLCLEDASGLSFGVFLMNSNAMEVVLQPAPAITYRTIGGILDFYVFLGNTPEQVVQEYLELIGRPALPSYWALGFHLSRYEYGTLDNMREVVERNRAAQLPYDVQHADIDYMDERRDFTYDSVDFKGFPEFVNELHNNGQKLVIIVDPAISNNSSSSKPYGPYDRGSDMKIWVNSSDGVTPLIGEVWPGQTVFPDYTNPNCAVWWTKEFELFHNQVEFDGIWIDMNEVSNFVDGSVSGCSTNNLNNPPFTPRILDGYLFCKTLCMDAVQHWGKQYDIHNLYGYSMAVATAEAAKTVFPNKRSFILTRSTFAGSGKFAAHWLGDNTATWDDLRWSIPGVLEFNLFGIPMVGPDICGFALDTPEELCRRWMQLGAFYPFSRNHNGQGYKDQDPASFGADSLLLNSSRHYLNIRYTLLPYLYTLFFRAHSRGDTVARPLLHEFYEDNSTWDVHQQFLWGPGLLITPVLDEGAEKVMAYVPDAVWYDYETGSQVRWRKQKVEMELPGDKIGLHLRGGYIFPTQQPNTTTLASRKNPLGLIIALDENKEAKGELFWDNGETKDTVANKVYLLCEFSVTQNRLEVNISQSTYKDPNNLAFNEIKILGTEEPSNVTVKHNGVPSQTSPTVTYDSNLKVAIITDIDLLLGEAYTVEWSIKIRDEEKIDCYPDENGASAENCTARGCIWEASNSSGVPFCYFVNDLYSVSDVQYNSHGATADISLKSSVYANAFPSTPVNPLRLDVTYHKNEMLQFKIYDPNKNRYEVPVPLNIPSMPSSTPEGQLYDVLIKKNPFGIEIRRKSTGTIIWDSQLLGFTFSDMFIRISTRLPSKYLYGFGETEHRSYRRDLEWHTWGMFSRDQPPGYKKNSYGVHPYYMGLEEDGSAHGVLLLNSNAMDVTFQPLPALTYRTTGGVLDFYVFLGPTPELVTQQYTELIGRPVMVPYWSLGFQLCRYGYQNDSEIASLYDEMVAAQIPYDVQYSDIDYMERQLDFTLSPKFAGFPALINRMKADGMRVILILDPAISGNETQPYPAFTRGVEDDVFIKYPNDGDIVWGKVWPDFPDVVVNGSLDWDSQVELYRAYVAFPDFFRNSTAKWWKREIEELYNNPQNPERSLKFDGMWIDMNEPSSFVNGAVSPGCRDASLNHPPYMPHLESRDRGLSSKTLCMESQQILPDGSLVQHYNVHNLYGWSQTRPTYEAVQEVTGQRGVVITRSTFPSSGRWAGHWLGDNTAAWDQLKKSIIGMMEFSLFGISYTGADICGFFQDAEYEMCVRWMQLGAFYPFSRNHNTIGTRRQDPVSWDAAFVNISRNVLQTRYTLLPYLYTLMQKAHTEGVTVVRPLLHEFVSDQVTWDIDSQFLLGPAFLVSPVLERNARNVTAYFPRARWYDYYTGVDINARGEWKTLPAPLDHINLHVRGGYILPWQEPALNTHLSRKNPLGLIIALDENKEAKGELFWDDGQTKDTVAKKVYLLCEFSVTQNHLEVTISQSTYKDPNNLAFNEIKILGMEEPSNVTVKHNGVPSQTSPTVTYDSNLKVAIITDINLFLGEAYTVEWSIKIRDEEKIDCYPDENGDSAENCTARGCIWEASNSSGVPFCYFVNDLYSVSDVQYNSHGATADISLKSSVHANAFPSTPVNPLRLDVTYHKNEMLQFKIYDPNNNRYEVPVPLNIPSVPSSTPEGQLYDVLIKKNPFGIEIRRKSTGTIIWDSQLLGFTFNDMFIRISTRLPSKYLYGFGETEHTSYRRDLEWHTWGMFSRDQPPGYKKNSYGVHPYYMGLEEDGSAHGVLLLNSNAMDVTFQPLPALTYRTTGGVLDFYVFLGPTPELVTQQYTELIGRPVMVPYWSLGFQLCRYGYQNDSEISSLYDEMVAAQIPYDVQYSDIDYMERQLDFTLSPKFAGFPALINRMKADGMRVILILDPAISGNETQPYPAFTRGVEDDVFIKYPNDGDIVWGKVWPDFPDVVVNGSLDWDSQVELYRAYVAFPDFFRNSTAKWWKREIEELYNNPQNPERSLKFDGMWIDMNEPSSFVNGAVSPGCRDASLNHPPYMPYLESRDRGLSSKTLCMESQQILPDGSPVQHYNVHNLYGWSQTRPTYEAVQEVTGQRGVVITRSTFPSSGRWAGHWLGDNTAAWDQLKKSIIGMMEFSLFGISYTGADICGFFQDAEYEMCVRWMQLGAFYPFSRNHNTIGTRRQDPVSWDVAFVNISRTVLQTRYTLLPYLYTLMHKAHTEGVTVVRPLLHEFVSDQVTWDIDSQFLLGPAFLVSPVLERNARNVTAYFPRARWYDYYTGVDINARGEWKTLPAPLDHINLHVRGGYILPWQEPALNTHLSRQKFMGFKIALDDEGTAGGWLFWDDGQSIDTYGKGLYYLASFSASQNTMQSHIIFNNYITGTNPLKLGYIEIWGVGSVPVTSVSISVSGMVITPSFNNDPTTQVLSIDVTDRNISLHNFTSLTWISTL
# Description: (§1) For this experiment, recombined human maltase-glucoamylase (MGAM) was prepared as previously reported and dissolved in 0.1 M phosphate buffer (pH 6.4) to produce a solution at 0.5 U/mL. Pre-incubation was initiated by mixing 20 µL of MGAM solution with 20 µL of inhibitor or distilled water for 10 min at 37 °C. Then, 40 µL of 8 mM maltose or phosphate buffer was added and the mixture was incubated at 37 °C for 10 min, and the reaction was stopped by boiling for 10 min and cooling in an ice bath. Glucose was quantified using a Glucose CII-test (Wako Pure Chemical Industries, Osaka, Japan). The 20 µL reaction mixture was added to a 100 µL of Glucose CII-test. The reaction proceeded for 10 min at 37 °C, and the absorbance at 492 nm was measured. The inhibition was analysed at different inhibitor and substrate concentrations. The half-maximum inhibition concentration (IC50) was calculated using nonlinear regression. The MGAM inhibitory activity was calculated as follows: MGAM inhibitory activity=1−As−A0/Ac×100 where As represents the absorbance of the sample, Ac is the absorbance of the control without the inhibitor, and A0 is the absorbance of the sample without MGAM.
# To study the kinetics of MGAM and α-amylase inhibition by XOS, the initial velocity in absorbance/min (ΔOD/min) was calculated at different substrate concentrations (0 to 10 mg/mL starch concentration for α-amylase and 0 to 8 mM maltose concentration for MGAM) and XOS concentrations. The values of initial velocity at different substrate concentrations at each XOS concentration was plotted (Michaelis–Menten plot), as well as the double reciprocal plot at each XOS concentration (Lineweaver–Burk plot).
# The Michaelis–Menten equation for competitive inhibition is given as follows: v=Vmax×S/Km1+I/Ki+S=Vmaxapp×S/Kmapp+S
# And the corresponding Lineweaver–Burk equation is given as follows: 1/v=Km/Vmax1+I/Ki1/S+1/Vmax where v is the initial velocity, Vmax is the maximum initial reaction velocity, I is the concentration of the inhibitor, S is the concentration of the substrate, Km is the Michaelis constant, and Ki is the competitive inhibition constant.
# [2] = biological target: T2, recombined human maltase-glucoamylase (MGAM) (Homo sapiens, UniProt O43451); assay: MGAM inhibition assay (glucose released from maltose); format: biochemical; conditions: maltose substrate, 37 °C, pH 6.4
# T2 construct: made in house
# T2 sequence (O43451 whole entry): as above
# Description: as §1
# [3] = biological target: T3, α-amylase from porcine pancreas (Sus scrofa, UniProt P00690); assay: α-Amylase inhibition assay (starch, DNS method); format: biochemical; conditions: for IC50: porcine pancreas α-amylase, 1% starch, 37 °C, pH 6.9
# T3 construct: α-amylase from porcine pancreas (EC 3.2.1.1), type VI-B; purchased Sigma Aldrich type VI-B; host or cells: porcine pancreas
# T3 sequence (P00690 16-511): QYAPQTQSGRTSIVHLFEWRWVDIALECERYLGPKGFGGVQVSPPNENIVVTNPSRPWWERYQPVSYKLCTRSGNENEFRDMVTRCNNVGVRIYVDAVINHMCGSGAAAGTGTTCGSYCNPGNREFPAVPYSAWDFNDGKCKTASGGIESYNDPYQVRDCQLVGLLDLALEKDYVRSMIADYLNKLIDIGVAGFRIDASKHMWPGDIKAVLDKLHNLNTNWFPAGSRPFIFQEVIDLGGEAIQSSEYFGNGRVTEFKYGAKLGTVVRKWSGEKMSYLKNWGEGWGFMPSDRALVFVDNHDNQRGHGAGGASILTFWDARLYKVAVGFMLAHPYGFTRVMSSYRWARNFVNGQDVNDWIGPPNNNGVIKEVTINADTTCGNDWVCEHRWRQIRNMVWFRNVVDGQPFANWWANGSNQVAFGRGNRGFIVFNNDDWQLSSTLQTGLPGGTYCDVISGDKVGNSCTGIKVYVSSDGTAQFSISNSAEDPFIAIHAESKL
# Description: (§2) The α-amylase from porcine pancreas solution was freshly prepared by mixing enzyme powder with 20 mM phosphate buffer (pH 6.9) containing 6.7 mM NaCl to produce a solution at 3 U/mL [39]. Pre-incubation was initiated by mixing 20 µL of α-amylase solution with 20 µL of inhibitor or distilled water for 10 min at 37 °C. Then, 20 µL of 1% (w/v) starch (prepared in 20 mM phosphate buffer (pH 6.9) containing 6.7 mM NaCl and heated at 100 °C for 10 min) or phosphate buffer was added, and the mixture was incubated at 37 °C for 10 min. The reaction was stopped by boiling the mixture for 10 min and cooling in an ice bath. The concentration of reducing sugars was calculated by the DNS method. The inhibition was analysed at different inhibitor and substrate concentrations. The half-maximum inhibition concentration (IC50) was calculated using nonlinear regression. The α-amylase inhibitory activity was calculated as follows: α-amylase inhibitory activity=1−As−A0/Ac×100 where As represents the absorbance of the sample, Ac is the absorbance of the control without the inhibitor, and A0 is the absorbance of the sample without α-amylase.
# α-glucosidase = tested on: α-glucosidase; parameters: method as in doi:10.1007/s12257-017-0049-8; conditions: at 10 mg/mL; cited from earlier work
# MGAM [4] = biological target: MGAM; parameters: method as in PMID 22058037; conditions: as reported; cited from earlier work
# α-amylase = biological target: T4, α-amylase (Sus scrofa, UniProt P00690); assay: Kinetics of α-amylase inhibition (Michaelis–Menten, Lineweaver–Burk); format: biochemical, porcine
# T4 construct: α-amylase from porcine pancreas (EC 3.2.1.1), type VI-B; purchased Sigma Aldrich type VI-B; host or cells: porcine pancreas
# T4 sequence (P00690 16-511): T3 sequence (P00690 16-511)
# Description: as §2, with “α-amylase. […]” for “α-amylase.”
Inhibition Type (MGAM) (MGAM [1]),"Vmax^app, inhibitor concentration A (MGAM [1]) [DO/min]","Vmax^app, inhibitor concentration B (MGAM [1]) [DO/min]","Vmax^app, inhibitor concentration C (MGAM [1]) [DO/min]",Ki (MGAM [1]) [mM],IC50 [2] [mM],Compound,inhibition rate (α-glucosidase) [%],further results
Competitive,0.101,0.093,0.102,44.2,32.3,"OC1COC(OC2C(O)COC(OC3COC(O)C(O)C3O)C2O)C(O)C1O (stereo not drawn) [DX3, β-(1→3)-xylosyl-β-(1→4)-xylobiose]",,IC50 [3]: 128 mM
,,,,,,OC[C@H]1O[C@@H](O)[C@H](O)[C@@H](O[C@@H]2O[C@H]3CO[C@@H]([C@@H]2O)[C@@H]3O[C@@H]2O[C@H](CO)[C@H](O)[C@H](O[C@@H]3O[C@H]4CO[C@@H]([C@@H]3O)[C@@H]4O)[C@H]2O)[C@H]1O [neoagarotetraose],33.2,
,,,,,,OC[C@H]1O[C@@H](O)[C@H](O)[C@@H](O[C@@H]2O[C@H]3CO[C@@H]([C@@H]2O)[C@@H]3O[C@@H]2O[C@H](CO)[C@H](O)[C@H](O[C@@H]3O[C@H]4CO[C@@H]([C@@H]3O)[C@@H]4O[C@@H]3O[C@H](CO)[C@H](O)[C@H](O[C@@H]4O[C@H]5CO[C@@H]([C@@H]4O)[C@@H]5O)[C@H]3O)[C@H]2O)[C@H]1O [neoagarohexaose],17.0,
,,,,,,OC[C@H]1OC(O)[C@H](O)[C@@H](O[C@@H]2O[C@H]3CO[C@@H]([C@@H]2O)[C@@H]3O)[C@H]1O (stereo partly shown) [neoagarobiose],35.3,
,,,,,,C[C@H]1O[C@H](O[C@H]2[C@H](O)[C@@H](O)[C@@H](O[C@H]3[C@H](O)[C@@H](O)C(O)O[C@@H]3CO)O[C@@H]2CO)[C@H](O)[C@@H](O)[C@@H]1N[C@H]1C=C(CO)[C@@H](O)[C@H](O)[C@H]1O (stereo partly shown) [Acarbose],,Ki (MGAM [4]): 0.062 mM; Ki for MGAM (MGAM [4]): 40 µg/mL
Competitive,0.086,0.086,0.086,53.9,45,"OC1COC(OC2COC(O)C(O)C2O)C(O)C1O (stereo not drawn) [X2, β-(1→4)-xylobiose]",,"IC50 [3]: 64 mM; Inhibition type (α-amylase) (α-amylase; Lineweaver–Burk plot): competitive; Vmax^app (α-amylase) (α-amylase; X2 12.42 mg/mL, X3 13.58 mg/mL, without inhibitor 0.056): 0.061 DO/min"
Competitive,0.102,0.105,0.102,42.7,23.6,"OC1COC(OC2C(O)COC(OC3COC(OC4COC(O)C(O)C4O)C(O)C3O)C2O)C(O)C1O (stereo not drawn) [DX4, β-(1→3)-xylosyl-β-(1→4)-xylotriose]",,inhibition at 10640 µg/mL ([3]; at 10.64 mg/mL): 2.9%
